Test results reported in US20080113907A1, “Uses Of Galectin-2” (Charite-Universitat-Smedizin Berlin, priority 2004, published 2008).
Where a SMILES comes first, the peptide text is derived from it. The star is where a group is joined. Cbz = O=C(OCc1ccccc1)*; CH2F = FC*

Key:
PBT [1] = experiment: Extent of apoptosis and necrosis (annexin-V, PI, DAPI staining); type: cell-based, human; details: for effect on galectin-2 induced T cell apoptosis / effect on galectin-7 induced cell death / effect on galectin-1 induced cell death: caspase inhibitor 50 μM; for effect on galectin-2 induced apoptosis: 50 mM
Experimental: Apoptosis was determined by monitoring fragmentation of nuclear DNA and access of annexin V to c ell surface phosphatidylserine (PS). To detect fragmentation of nuclear DNA, T cells were cultured in the presence and absence of the respective galectins, with or without blocking antibodies or further activation for 48 h. Thereafter, cells were fixed in 0.2 ml of 37% formaldehyde for 10 min at room temperature. The cells were then treated with 1 ml PBS containing 0.2% Nonidet P-40 (Sigma-Aldrich) for 2 min at room temperature and then rinsed once in PBS. The apoptotic cells were detected by staining of nuclear DNA with 4,6-diamino-2-phenylindole (DAPI) (Calbiochem). DAPI was added at a concentration of 0.2 ng/ml of PBS and cells were incubated at room temperature for 20 min in this solution. Cells were rinsed twice in PBS and the coverslips were maintained cell side down on a microscope slide and analyzed using a Zeiss Axiovert 135M microscope (Carl Zeiss, Oberkochen, Germany). To detect early phases of apoptosis, access to PS was measured. Cells were cultured as described, harvested at the respective time points, stained with FITC-labeled annexin-V and PI and analyzed by flow cytometry using the CellQuest software program (BD Pharmingen). A minimum of 15,000 cells was monitored in each case.

[2] = system: dextran sodium sulfate induced colitis; experiment: Prevention of DSS induced acute colitis, disease activity index (DAI); type: in vivo, Balb/c mice; details: 2 mg/kg i.p.; 10 days after induction; control 6.5 ± 0.3
Experimental: Colitis was induced in 8- to 10-week-old, female, Balb/c mice (Jackson Laboratories, Bar Harbor, Me.) by adding 5% DSS (Sigma Chemical Co., St. Louis, Mo.) (Dextran Sodiumsulfate (DSS) to their drinking water and allowing them to drink ad libitum. Groups of mice were treated either with 1 mg/kg BW (body weight) galectin-2 intraperitoneally or PBS 2 h before DSS administration. Mice were weighed and inspected for diarrhea and rectal bleeding. Seven days after induction of colitis by DSS, mice were killed, their entire colon was resected, and its length was measured and weighed. The disease activity index (DAI; i.e., the combined score of weight loss and bleeding) was determined according to a standard scoring system.
The disease activity index: Loss in bodyweight: 0=no loss; 1=5% to 10%; 2=10% to 15%; 3=15% to 20%; 4 ? 20%.
Hemoccult: 0=no blood; 2=positive; 4=gross blood.
In this experiment the DAI ranges from 0 to 8. The higher the DAI score the more severely the animal had been affected by colitis.
Colitis was induced in 8- to 10-week-old, female, Balb/c mice (Jackson Laboratories, Bar Harbor, Me.) by adding 5% DSS (Sigma Chemical Co., St. Louis, Mo.) (Dextran Sodiumsulfate (DSS) to their drinking water and allowing them to drink ad libitum. Groups of respectively 10 mice were treated either with Galectin-2 subcutaneously (s.c.) or intraperitoneally (i.p.) 2 h before DSS administration. In one trial with 10 mice the doses of Galectin-2 was doubled (administered i.p.) and compared to the treatment of 10 mice with Tacrolimus (FK506) (administered i.p.) in equal concentrations. In parallel a group of 10 mice was treated with 0.9% NaCl instead of Galectin-2 as control. Mice were weighed and inspected for diarrhea and rectal bleeding. 10 days after induction of colitis by DSS, mice were killed, their entire colon was resected, and its length was measured and weighed. The disease activity index (DAI; i.e., the combined score of weight loss and bleeding) was determined according to a standard scoring system.
The disease activity index: Loss in body weight: 0=no loss; 1=5% to 10%; 2=10% to 15%; 3=15% to 20%; 4 ? 20%.

T cells = experiment: Binding of biotinylated Gal-2 to T lymphocytes (flow cytometry); design: species or system human; details: 50 mM
Experimental: To measure Gal-2 binding to T lymphocytes, aliquots of cell suspensions were kept as controls or stimulated for 1, 6, 12, 24, 48, and 72 h with anti-CD3 mAb or PMA and PHA and incubated in the presence of 5 μg/ml biotin-labeled Gal-2. Cells were then harvested, washed and stained with anti-CD3-FITC mAb and APC-labeled streptavidin (Biosource) followed by flow cytofluorometric analysis. Cells cultured in the absence of biotin-labeled Gal-2 and stained with FITC-labeled mouse IgG (BD Pharmingen) or APC-labeled streptavidin served as isotype controls. Each analysis was performed on at least 20,000 events.

PBT [3] = experiment: Analysis of T cell cycling (DNA content, cyclin B1, cell cycle regulators); type: cell-based, human; details: anti-CD3 activated PBT; dropped from 8% (galectin-1) and 7% (galectin-7)
Experimental: For immunoblotting cells were washed in PBS, and lysed in cell lysis buffer (1% Triton-X, 0.5% NP-40, 0.1% SDS, 0.5% sodium deoxycholate, 5 mM EDTA, 50 mM and 50 mM protease- and phosphatase-inhibitor cocktail 2, 1 mM PMSF, 100 μg/ml trypsin-chymotrypsin inhibitor, 100 μg/ml chymostatin in PBS). The concentration of proteins in each lysate was measured using the Bio-Rad protein assay (Bio-Rad Laboratories, Hercules, Calif.). Equivalent amounts of protein (10 μg) were fractionated on a 10-20% Tris-glycine gel and electrotransferred to a nitrocellulose membrane (Novex, San Diego, Calif.). Membranes were blocked with 5% milk in 0.1% Tween 20-PBS (Fisher Scientific, Hanover Park, Ill.), followed by incubation for 60 m in at room temperature with the indicated primary antibody. The membranes were washed six times with 0.1% Tween 20-PBS and then incubated for 1 h with the appropriate horseradish peroxidase-conjugated secondary antibody (Santa Cruz Biotechnology), washed, and incubated with the chemiluminescent substrate (Perkin-Elmer, Carlsbad, Calif.) for 5 minutes. The membranes were then exposed to film (Amersham, Arlington Heights, Ill.).
Flow cytometry was performed after staining for DNA content, and cyclin B1, essentially as previously described (21). Briefly, cells were washed twice with PBS, adjusted to 1×10^6 cells/sample and fixed in 90% Methanol at −20° C. After fixation, cells were washed twice with PBS, incubated for 45 min at 4° C. with a cyclin B1-FITC conjugated monoclonal antibody. After the final wash, cells were resupended in PBS and 5 μl of RNase (0.6 μg/ml, 30-60 Kunitz Units, Sigma), incubated at 37° C. for 15 min and the chilled on ice. One hundred and twenty five microliters of PI (200 μg/ml) were added prior to analysis by flow cytometry. Each analysis was performed on at least 25.000 events.

T cells (PBT, LPT) = experiment: Adhesion assay to collagen type I and fibronectin; type: cell-based, human; details: PBT
Experimental: 96 well flat-bottom plates were precoated overnight at 4° C. with 12 μg/well fibronectin (Chemicon) in DPBS, 40 μg/well collagen type I (Sigma-Aldrich) in 0.1 M acetic acid, or 3% BSA (Sigma-Aldrich) in DPBS as a control and then washed three times with DPBS. Freshly isolated T cells were fluorescently-labelled with 5 μM calcein-AM (Molecular Probes, Eugene, Oreg.) for 30 min at 37° C. in 5% CO2 at 5×10^6 cells/ml in RPMI. The cells were then washed three times with RPMI containing 5% FCS. Calcein-labelled T cells were resuspended in RPMI and 5×10^5 T cells/well were added to 96-well plates containing purified ECM components or BSA for the indicated times. Saturating concentrations of integrin-blocking mAbs (predetermined by flow cytometry) were preincubated with T cells for 30 min at 37° C. before adding T cells to the wells for the adhesion assay. Nonadherent cells were removed by a standardized washing technique that was developed to minimize background binding, which includes both an orbital and a rocking motion repeated three times with RPMI. Adhesion was quantified with a multiwell fluorescent spectrophotometer (Tecan, Groedig, Austria). For each experimental group the results were expressed as the mean percentage±SD of bound T cells from triplicate wells.

Compound	effect on galectin-2 induced T cell apoptosis (PBT [1])	effect on galectin-7 induced cell death (PBT [1])	effect on galectin-1 induced cell death (PBT [1])	further results
COC(=O)C[C@H](NC(=O)[C@H](C)NC(=O)[C@@H](NC(=O)[C@H](Cc1ccc(O)cc1)NC(=O)OCc1ccccc1)C(C)C)C(=O)CF [zYVAD, Z-Tyr-Val-Ala-Asp(Ome)-Ch2F]	had no effect	blocked		
C=CC[C@@H]1/C=C(\C)C[C@H](C)C[C@H](OC)[C@H]2O[C@@](O)(C(=O)C(=O)N3CCCC[C@H]3C(=O)O[C@H](/C(C)=C/[C@@H]3CC[C@@H](O)[C@H](OC)C3)[C@H](C)[C@@H](O)CC1=O)[C@H](C)C[C@@H]2OC [Tacrolimus, reference compound]				DAI (disease activity index) [2]: 2.4 ± 0.5,; apoptosis and necrosis of stimulated and unstimulated T cells (PBT [1]; 0, 50, 100 μg/ml, 24 h, with or without anti-CD3): makes no distinction between stimulated and unstimulated T-cells and mainly induces necrosis
O=P1(N(CCCl)CCCl)NCCCO1 (stereo not drawn) [cyclophosphamide]				effect on galectin-2 induced T cell death (PBT [1]; 0, 10, 1000 nM, data not shown): failed to modulate galectin-2 induced T cell death
COC(=O)CC[C@H](NC(=O)[C@H](CC(=O)OC)NC(=O)OCc1ccccc1)C(=O)N[C@H](C(=O)N[C@@H](CC(=O)OC)C(=O)CF)C(C)C [zDEVD, Z-Asp-Glu-Val-Asp(OMe)-fluoromethylketone]	significantly inhibited	inhibited	impair	
COC(=O)CC[C@H](NC(=O)[C@H](CC(C)C)NC(=O)OCc1ccccc1)C(=O)N[C@@H](Cc1cnc[nH]1)C(=O)N[C@@H](CC(=O)OC)C(=O)CF [zLEHD, Z-Leu-Glu(Ome)-His-Asp-(Ome)-Ch2F] (Cbz-LE(OMe)HD(OMe)-CH2F)	significantly inhibited	not	blocked	
Z-Ile-Glu-Thr-Asp(OMe)-fluoromethylketone [zIETD]	had no effect	inhibited	blocked	
OC[C@H]1O[C@@H](O[C@H]2[C@H](O)[C@@H](O)C(O)O[C@@H]2CO)[C@H](O)[C@@H](O)[C@H]1O (stereo partly drawn) [lactose, reference compound]				reduction of Gal-2 binding to T cells (T cells; unstimulated T cells): more than 70%; effect on galectin-2 induced apoptosis (PBT [1]): largely inhibited
COC(=O)C[C@H](NC(=O)[C@H](C)NC(=O)[C@@H](NC(=O)OCc1ccccc1)C(C)C)C(=O)CF [zVAD, Z-Val-Ala-Asp(OMe)-fluoromethylketone] (Cbz-Val-Ala-Asp(OMe)-CH2F)	significantly inhibited	inhibited	impair	
OC[C@H]1O[C@@](CO)(O[C@H]2O[C@H](CO)[C@@H](O)[C@H](O)[C@H]2O)[C@@H](O)[C@@H]1O [sucrose, reference compound]				effect on Gal-2 staining intensity of T cells (T cells; not shown): failed to affect the staining intensity; effect on galectin-2 induced apoptosis (PBT [1]): not
galectin-7: another homodimeric proto-type galectin used for comparison				PBT apoptosis relative to galectin-2 (PBT [1]; stimulated T cells): induced PBT apoptosis comparable to galectin-2; cyclin B1 expression (PBT [3]): 1%; effect on PBT adhesion to collagen or fibronectin (T cells (PBT, LPT)): failed to significantly alter PBT adhesion to collagen or fibronectin
